Data: ChEMBL document CHEMBL4419169, “Novel Ferroportin Inhibitors” (2018)
Blank lines part the entries; values can stand above or below the molecule they belong to. Active and inactive are the calls of the source. The rule behind the calls is not given here.

How the values were obtained:
Rattus norvegicus [1] = assay: Prevention of iron absorption in orally dosed anemic Wistar rat model of iron absorption assessed as inhibition of increase in serum iron pre-dosed 1 hr before ferrous sulfate dosing and measured 3 hours after iron dosing; type: functional, organism-based
[2] = molecular target: T1, Ferroportin (Mus musculus) (UniProt Q9JHI9); assay: Inhibition of ferroportin in mouse J774 cells assessed as induce ferroportin ubiquitination and degradation at 1.5 uM incubated for 120 mins by immunoprecipitation assay; type: cell-based
T1 sequence (whole entry): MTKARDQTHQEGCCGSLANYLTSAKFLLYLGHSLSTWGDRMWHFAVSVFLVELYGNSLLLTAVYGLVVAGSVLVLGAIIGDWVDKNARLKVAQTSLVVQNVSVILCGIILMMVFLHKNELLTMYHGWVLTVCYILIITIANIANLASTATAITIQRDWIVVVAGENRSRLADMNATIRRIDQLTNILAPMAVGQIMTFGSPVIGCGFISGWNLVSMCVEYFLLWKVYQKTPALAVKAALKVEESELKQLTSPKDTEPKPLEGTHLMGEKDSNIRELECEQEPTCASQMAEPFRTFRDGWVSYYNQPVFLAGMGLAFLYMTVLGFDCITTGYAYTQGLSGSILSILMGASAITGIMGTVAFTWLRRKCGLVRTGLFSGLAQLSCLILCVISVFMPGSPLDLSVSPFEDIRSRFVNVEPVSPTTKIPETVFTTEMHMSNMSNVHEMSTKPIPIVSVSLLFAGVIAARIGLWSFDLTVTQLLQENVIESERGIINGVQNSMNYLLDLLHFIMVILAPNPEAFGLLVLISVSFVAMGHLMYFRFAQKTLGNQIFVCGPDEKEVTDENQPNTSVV

[3] = molecular target: T1, Ferroportin (Mus musculus); assay: Inhibition of ferroportin in mouse J774 cells assessed as induce ferroportin ubiquitination and degradation at 1.5 uM incubated for 10 mins by immunoprecipitation assay; type: cell-based
Mus musculus [4] = assay: Prevention of hyperferremia in iron overloaded beta2-microglobulin deficient female mouse assessed as reduction in serum iron level at 60 mg/kg, po measured after 3 hrs relative to control; type: functional; parameters: scale not given: the % may be the effect or the level left
Mus musculus [5] = assay: Disease modifying capacity in mouse model of transfusion-independent beta-thalassemia intermedia assessed as increase in blood erythrocyte counts at 60 mg/kg, po BID for 20 days relative to control; type: functional
Mus musculus [6] = assay: Disease modifying capacity in mouse model of transfusion-independent beta-thalassemia intermedia assessed as decrease in RDW level at 20 mg/kg, po BID for 20 days relative to control; type: functional; parameters: scale not given: the % may be the effect or the level left
Mus musculus [7] = assay: Disease modifying capacity in mouse model of transfusion-independent beta-thalassemia intermedia assessed as increase in hematocrit levels at 20 mg/kg, po BID for 20 days relative to control; type: functional
Mus musculus [8] = assay: Disease modifying capacity in mouse model of transfusion-independent beta-thalassemia intermedia assessed as decrease in [58Fe] spleen iron content at 60 mg/kg, po BID for 20 days relative to control; type: functional; parameters: scale not given: the % may be the effect or the level left
Mus musculus [9] = assay: Disease modifying capacity in mouse model of transfusion-independent beta-thalassemia intermedia assessed as decrease in bone marrow ROS levels level at 60 mg/kg, po BID for 20 days relative to control; type: functional; parameters: scale not given: the % may be the effect or the level left
Mus musculus [10] = assay: Disease modifying capacity in mouse model of transfusion-independent beta-thalassemia intermedia assessed as prevention of liver [58Fe] loading at 20 mg/kg, po BID for 20 days relative to control; type: functional
Mus musculus [11] = assay: Disease modifying capacity in mouse model of transfusion-independent beta-thalassemia intermedia assessed as decrease in spleen erythroferrone-mRNA at 20 mg/kg, po BID for 20 days relative to control; type: functional; parameters: scale not given: the % may be the effect or the level left
Mus musculus [12] = assay: Disease modifying capacity in mouse model of transfusion-independent beta-thalassemia intermedia assessed as decrease in serum erythropoietin at 60 mg/kg, po BID for 20 days relative to control; type: functional; parameters: scale not given: the % may be the effect or the level left
[13] = molecular target: T1, Ferroportin (Mus musculus); assay: Inhibition of ferroportin in mouse J774 cells assessed as induce ferroportin ubiquitination and degradation at […] incubated for 10 mins by immunoprecipitation assay; type: cell-based
Mus musculus [14] = assay: Disease modifying capacity in mouse model of transfusion-independent beta-thalassemia intermedia assessed as decrease in blood reticulocyte counts at 60 mg/kg, po BID for 20 days relative to control; type: functional; parameters: scale not given: the % may be the effect or the level left
Mus musculus [15] = assay: Disease modifying capacity in mouse model of transfusion-independent beta-thalassemia intermedia assessed as decrease in leukocyte counts level at 20 mg/kg, po BID for 20 days relative to control; type: functional; parameters: scale not given: the % may be the effect or the level left
[16] = molecular target: T1, Ferroportin (Mus musculus); assay: Inhibition of ferroportin in mouse J774 cells assessed as induce ferroportin ubiquitination and degradation at […] incubated for 120 mins by immunoprecipitation assay; type: cell-based
Mus musculus [17] = assay: Prevention of hyperferremia in iron overloaded beta2-microglobulin deficient female mouse assessed as reduction in serum iron level at 20 mg/kg, po measured after 3 hrs relative to control; type: functional; parameters: scale not given: the % may be the effect or the level left
Mus musculus [18] = assay: Disease modifying capacity in mouse model of transfusion-independent beta-thalassemia intermedia assessed as prevention of liver [58Fe] loading at 60 mg/kg, po BID for 20 days relative to control; type: functional
Mus musculus [19] = assay: Disease modifying capacity in mouse model of transfusion-independent beta-thalassemia intermedia assessed as increase in blood erythrocyte counts at 20 mg/kg, po BID for 20 days relative to control; type: functional
Mus musculus [20] = assay: Disease modifying capacity in mouse model of transfusion-independent beta-thalassemia intermedia assessed as decrease in blood reticulocyte counts at 20 mg/kg, po BID for 20 days relative to control; type: functional; parameters: scale not given: the % may be the effect or the level left
Mus musculus [21] = assay: Decrease in serum iron in mouse model of transfusion-independent beta-thalassemia intermedia at 60 mg/kg, po BID for 20 days relative to control; type: functional; parameters: scale not given: the % may be the effect or the level left
Mus musculus [22] = assay: Induction of hypoferremia in wild type C57BL/6 mouse assessed as decrease in serum iron levels at 10 mg/kg, po measured after 3 hrs post dose; type: functional; parameters: scale not given: the % may be the effect or the level left
Mus musculus [23] = assay: Disease modifying capacity in mouse model of transfusion-independent beta-thalassemia intermedia assessed as decrease in leukocyte counts level at 60 mg/kg, po BID for 20 days relative to control; type: functional; parameters: scale not given: the % may be the effect or the level left
Mus musculus [24] = assay: Induction of hypoferremia in wild type C57BL/6 mouse assessed as decrease in serum iron levels at 100 mg/kg, po measured after 3 hrs post dose; type: functional; parameters: scale not given: the % may be the effect or the level left
Mus musculus [25] = assay: Disease modifying capacity in mouse model of transfusion-independent beta-thalassemia intermedia assessed as decrease in serum erythropoietin at 20 mg/kg, po BID for 20 days relative to control; type: functional; parameters: scale not given: the % may be the effect or the level left
Mus musculus [26] = assay: Induction of hypoferremia in wild type C57BL/6 mouse assessed as decrease in serum iron levels at 30 mg/kg, po measured after 3 hrs post dose; type: functional; parameters: scale not given: the % may be the effect or the level left
Mus musculus [27] = assay: Decrease in serum iron in mouse model of transfusion-independent beta-thalassemia intermedia at 20 mg/kg, po BID for 20 days relative to control; type: functional; parameters: scale not given: the % may be the effect or the level left
Rattus norvegicus [28] = assay: Prevention of iron absorption in anemic Wistar rat model of iron absorption assessed as inhibition of increase in serum iron at 10 mg/kg, po pre-dosed 1 hr before ferrous sulfate dosing and measured 3 hours after iron dosing; type: functional
Mus musculus [29] = assay: Disease modifying capacity in mouse model of transfusion-independent beta-thalassemia intermedia assessed as decrease in RDW level at 60 mg/kg, po BID for 20 days relative to control; type: functional; parameters: scale not given: the % may be the effect or the level left
Mus musculus [30] = assay: Disease modifying capacity in mouse model of transfusion-independent beta-thalassemia intermedia assessed as increase in hematocrit levels at 60 mg/kg, po BID for 20 days relative to control; type: functional
Mus musculus [31] = assay: Disease modifying capacity in mouse model of transfusion-independent beta-thalassemia intermedia assessed as decrease in [58Fe] spleen iron content at 20 mg/kg, po BID for 20 days relative to control; type: functional; parameters: scale not given: the % may be the effect or the level left
Mus musculus [32] = assay: Prevention of hyperferremia in iron overloaded beta2-microglobulin deficient male mouse assessed as reduction in serum iron level at 20 mg/kg, po measured after 3 hrs relative to control; type: functional; parameters: scale not given: the % may be the effect or the level left
Rattus norvegicus [33] = assay: Prevention of iron absorption in anemic Wistar rat model of iron absorption assessed as inhibition of increase in serum iron at 30 mg/kg, po pre-dosed 1 hr before ferrous sulfate dosing and measured 3 hours after iron dosing; type: functional
Rattus norvegicus [34] = assay: Prevention of iron absorption in anemic Wistar rat model of iron absorption assessed as inhibition of increase in serum iron at 3 mg/kg, po pre-dosed 1 hr before ferrous sulfate dosing and measured 3 hours after iron dosing; type: functional
Mus musculus [35] = assay: Prevention of hyperferremia in iron overloaded beta2-microglobulin deficient male mouse assessed as reduction in serum iron level at 60 mg/kg, po measured after 3 hrs relative to control; type: functional; parameters: scale not given: the % may be the effect or the level left
[36] = molecular target: T1, Ferroportin (Mus musculus); assay: Inhibition of ferroportin in mouse J774 cells assessed as induce ferroportin ubiquitination and degradation at 0.2 uM incubated for 10 mins by immunoprecipitation assay; type: cell-based
[37] = molecular target: T1, Ferroportin (Mus musculus); assay: Inhibition of ferroportin in mouse J774 cells assessed as induce ferroportin ubiquitination and degradation at 0.2 uM incubated for 120 mins by immunoprecipitation assay; type: cell-based
[38] = molecular target: T1, Ferroportin (Mus musculus); assay: Inhibition of ferroportin in mouse J774 cells assessed as induce ferroportin ubiquitination and degradation at 0.8 uM incubated for 10 mins by immunoprecipitation assay; type: cell-based
[39] = molecular target: T1, Ferroportin (Mus musculus); assay: Inhibition of ferroportin in mouse J774 cells assessed as induce ferroportin ubiquitination and degradation at 0.8 uM incubated for 120 mins by immunoprecipitation assay; type: cell-based

SMILES: Cc1cccnc1CNC(=O)c1csc(CCNCc2nc3ccccc3[nH]2)n1
Activity (Rattus norvegicus [1]): Dose-dependent effect

SMILES: O=C(NCc1ncccc1F)c1cnc(CCNCCc2nc3ccccc3[nH]2)o1
Activity (Mus musculus [4]): 52%
Activity (Mus musculus [5]): 8%
Activity (Mus musculus [6]): 3%
Activity (Mus musculus [7]): 0%
Activity (Mus musculus [8]): 48%
Activity (Mus musculus [9]): 45%
Activity (Mus musculus [10]): 12%
Activity (Mus musculus [11]): 82%
Activity (Mus musculus [12]): 78%
inhibition [13]: Active
Activity (Mus musculus [14]): 39%
Activity (Mus musculus [15]): 32%
inhibition [16]: Active
Activity (Mus musculus [17]): 31%
Activity (Mus musculus [18]): 40%
Activity (Mus musculus [19]): 4%
Activity (Mus musculus [20]): 8%
Activity (Mus musculus [21]): 66%
Activity (Mus musculus [22]): 0%
Activity (Mus musculus [23]): 44%
Activity (Mus musculus [24]): 51%
Activity (Mus musculus [25]): 64%
Activity (Mus musculus [26]): 28%
Activity (Mus musculus [27]): 49%
inhibition in vivo at 10 mg/kg (Rattus norvegicus [28]): 42.6%
Activity (Mus musculus [29]): 16%
Activity (Mus musculus [30]): 4%
Activity (Mus musculus [31]): 14%
Activity (Mus musculus [32]): 31%
inhibition in vivo at 30 mg/kg (Rattus norvegicus [33]): 64.9%
inhibition in vivo at 3 mg/kg (Rattus norvegicus [34]): 2.1%

Further lines, with some results ahead:

inhibition [2]: Active
inhibition [3]: Active
SMILES: O=C(NCc1ncccc1F)c1cnn(C2CN(CCc3nc4ccccc4[nH]3)C2)c1

inhibition [36]: Active
inhibition [37]: Active
SMILES: O=C(NCc1ncccc1F)c1coc(C2CN(CCc3nc4ccccc4[nH]3)C2)n1
Activity (Mus musculus [4]): 49%
Activity (Mus musculus [35]): 67%

inhibition [38]: Active
inhibition [39]: Active
SMILES: O=C(NCc1ncccc1F)c1coc(CCNCc2nc3ccccc3[nH]2)n1
